Measurements published in US11512097B2, “Heterocyclic compounds as Delta-5 desaturase inhibitors and methods of use” (Amgen Inc., priority 2019, dated 2022).

The molecules below were run against T1, Delta-5-Desaturase (D5D), membrane preparations of D5D-overexpressing HEK293 6E cells (Homo sapiens, UniProt O60427) (assay: In vitro measurement of Delta-5-Desaturase inhibitory activity using DGLA-CoA and Arachidonyl-CoA mass spectrometric assays). Conditions: D5D membrane 10 μg/mL, one-hour incubation, average of at least two independent runs.
T1 construct: expressed in transfected cells; host or cells: HEK293 6E cells (membrane preparation)
T1 sequence (O60427 whole entry, species assumed): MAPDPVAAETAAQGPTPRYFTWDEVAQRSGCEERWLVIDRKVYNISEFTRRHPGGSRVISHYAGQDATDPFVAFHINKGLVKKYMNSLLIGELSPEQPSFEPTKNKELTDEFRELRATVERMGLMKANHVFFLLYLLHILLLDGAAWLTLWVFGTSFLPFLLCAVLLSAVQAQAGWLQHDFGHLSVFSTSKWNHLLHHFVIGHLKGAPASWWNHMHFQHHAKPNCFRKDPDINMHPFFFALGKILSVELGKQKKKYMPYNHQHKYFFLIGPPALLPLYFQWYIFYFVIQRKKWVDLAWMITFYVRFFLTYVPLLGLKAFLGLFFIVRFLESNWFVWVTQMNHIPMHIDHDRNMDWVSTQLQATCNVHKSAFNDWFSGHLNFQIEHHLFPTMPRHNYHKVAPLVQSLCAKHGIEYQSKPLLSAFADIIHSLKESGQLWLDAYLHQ
Assay type: biochemical
Procedure, shortened: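 Substrate mix (0.01 mM DGLA with NADH, ATP, coenzyme A) was incubated 1 h at room temperature with HEK293 6E D5D membranes at 10 μg/mL final, pH 7.5. Negative-mode SPE-MS/MS monitored DGLA-CoA (m/z 526.6) and arachidonyl-CoA (m/z 525.6). Inhibition normalised to DMSO and no-enzyme wells gave IC50s, mean of ≥2 runs.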

| SMILES | IC50 [nM] |
| --- | --- |
| Cc1cn2c(=O)c(-c3cnn(CCC(F)(F)F)c3)c(C(F)(F)F)nc2n1CC1CC(F)(F)C1 [Example 82, 1-[(3,3-difluorocyclobutyl)methyl]-2-methyl-7-(trifluoromethyl)-6-[1-(3,3,3-trifluoropropyl)-1H-pyrazol-4-yl]-1H,5H-imidazo[1,2-a]pyrimidin-5-one] | 2030 |
| Cc1cn2c(=O)c(-c3cnn(CCC(F)(F)F)c3)c(C(F)(F)F)nc2n1CC#N [Example 87, 2-[2-methyl-5-oxo-7-(trifluoromethyl)-6-[1-(3,3,3-trifluoropropyl)-1H-pyrazol-4-yl]-1H,5H-imidazo[1,2-a]pyrimidin-1-yl]acetonitrile] | 3.7 |
| Cc1cn2c(=O)c(-c3cnn(CC(F)(F)C(F)(F)F)c3)c(C(F)(F)F)nc2n1CC1COC1 [Example 90, 2-methyl-1-[(oxetan-3-yl)methyl]-6-[1-(2,2,3,3,3-pentafluoropropyl)-1H-pyrazol-4-yl]-7-(trifluoromethyl)-1H,5H-imidazo[1,2-a]pyrimidin-5-one] | 105 |
| Cc1cn2c(=O)c(-c3cnn(CC(F)(F)C(F)(F)F)c3)c(C(F)(F)F)nc2n1C1COC1 [Example 91, 2-methyl-1-(oxetan-3-yl)-6-[1-(2,2,3,3,3-pentafluoropropyl)-1H-pyrazol-4-yl]-7-(trifluoromethyl)-1H,5H-imidazo[1,2-a]pyrimidin-5-one] | 10.1 |
| Cc1cn2c(=O)c(-c3cnn(CC(F)(F)C(F)(F)F)c3)c(C(F)(F)F)nc2n1-c1ccccn1 [Example 93, 2-methyl-6-[1-(2,2,3,3,3-pentafluoropropyl)-1H-pyrazol-4-yl]-1-(pyridin-2-yl)-7-(trifluoromethyl)-1H,5H-imidazo[1,2-a]pyrimidin-5-one] | 678 |
| Cc1cn2c(=O)c(-c3cnn(CCC(F)(F)F)c3)c(C(F)(F)F)nc2n1-c1ccccn1 [Example 94, 2-methyl-1-(pyridin-2-yl)-7-(trifluoromethyl)-6-[1-(3,3,3-trifluoropropyl)-1H-pyrazol-4-yl]-1H,5H-imidazo[1,2-a]pyrimidin-5-one] | 777 |
| Cc1cn2c(=O)c(-c3cnn(CC(F)(F)C(F)(F)F)c3)c(C(F)(F)F)nc2n1-c1cnccn1 [Example 95, 2-methyl-6-[1-(2,2,3,3,3-pentafluoropropyl)-1H-pyrazol-4-yl]-1-(pyrazin-2-yl)-7-(trifluoromethyl)-1H,5H-imidazo[1,2-a]pyrimidin-5-one] | 247 |
| Cc1cccc(-n2c(C)cn3c(=O)c(-c4cnn(CC(F)(F)C(F)(F)F)c4)c(C(F)(F)F)nc23)n1 [Example 96, 2-methyl-1-(6-methylpyridin-2-yl)-6-[1-(2,2,3,3,3-pentafluoropropyl)-1H-pyrazol-4-yl]-7-(trifluoromethyl)-1H,5H-imidazo[1,2-a]pyrimidin-5-one] | 19.4 |
| Cc1cn2c(=O)c(-c3cnn(CC(F)(F)C(F)(F)F)c3)c(C(F)(F)F)nc2n1-c1cncnc1 [Example 99, 2-methyl-6-[1-(2,2,3,3,3-pentafluoropropyl)-1H-pyrazol-4-yl]-1-(pyrimidin-5-yl)-7-(trifluoromethyl)-1H,5H-imidazo[1,2-a]pyrimidin-5-one] | 36100 |
| Cc1cn2c(=O)c(-c3cnn(CC(F)(F)C(F)(F)F)c3)c(C(F)(F)F)nc2n1-c1ccncc1 [Example 102, 2-methyl-6-[1-(2,2,3,3,3-pentafluoropropyl)-1H-pyrazol-4-yl]-1-(pyridin-4-yl)-7-(trifluoromethyl)-1H,5H-imidazo[1,2-a]pyrimidin-5-one] | 8400 |
| Cc1cn2c(=O)c(-c3cnn(CC(F)(F)C(F)(F)F)c3)c(C(F)(F)F)nc2n1-c1cn[nH]c1 [Example 103, 2-methyl-6-[1-(2,2,3,3,3-pentafluoropropyl)-1H-pyrazol-4-yl]-1-(1H-pyrazol-4-yl)-7-(trifluoromethyl)-1H,5H-imidazo[1,2-a]pyrimidin-5-one] | 301 |
| O=c1c(-c2cnn(CC(F)(F)C(F)(F)F)c2)c(C(F)(F)F)nc2sc(CF)nn12 [Example 104, 2-(fluoromethyl)-6-[1-(2,2,3,3,3-pentafluoropropyl)-1H-pyrazol-4-yl]-7-(trifluoromethyl)-5H-[1,3,4]thiadiazolo[3,2-a]pyrimidin-5-one] | 100 |

Continued by falling IC50, values first:

| IC50 [nM] | SMILES |
| --- | --- |
| 61500 | CNCc1nn2c(=O)c(-c3cnn(CC(F)(F)C(F)(F)F)c3)c(C(F)(F)F)nc2s1 [Example 106, 2-[(methylamino)methyl]-6-[1-(2,2,3,3,3-pentafluoropropyl)-1H-pyrazol-4-yl]-7-(trifluoromethyl)-5H-[1,3,4]thiadiazolo[3,2-a]pyrimidin-5-one] |
| 10500 | CN(C)Cc1nn2c(=O)c(-c3cnn(CC(F)(F)C(F)(F)F)c3)c(C(F)(F)F)nc2s1 [Example 105, 2-[(dimethylamino)methyl]-6-[1-(2,2,3,3,3-pentafluoropropyl)-1H-pyrazol-4-yl]-7-(trifluoromethyl)-5H-[1,3,4]thiadiazolo[3,2-a]pyrimidin-5-one] |
| 4120 | Cc1cn2c(=O)c(-c3cnn(CC(F)(F)C(F)(F)F)c3)c(C(F)(F)F)nc2n1-c1ccccc1 [Example 100, 2-methyl-6-[1-(2,2,3,3,3-pentafluoropropyl)-1H-pyrazol-4-yl]-1-phenyl-7-(trifluoromethyl)-1H,5H-imidazo[1,2-a]pyrimidin-5-one] |
| 2400 | Cc1cn2c(=O)c(-c3cnn(CC(F)(F)C(F)(F)F)c3)c(C(F)(F)F)nc2n1-c1cccnc1 [Example 98, 2-methyl-6-[1-(2,2,3,3,3-pentafluoropropyl)-1H-pyrazol-4-yl]-1-(pyridin-3-yl)-7-(trifluoromethyl)-1H,5H-imidazo[1,2-a]pyrimidin-5-one] |
| 631 | Cc1cn2c(=O)c(-c3cnn(CC(F)(F)C(F)(F)F)c3)c(C(F)(F)F)nc2n1CC(C)(C)O [Example 88, 1-(2-hydroxy-2-methylpropyl)-2-methyl-6-[1-(2,2,3,3,3-pentafluoropropyl)-1H-pyrazol-4-yl]-7-(trifluoromethyl)-1H,5H-imidazo[1,2-a]pyrimidin-5-one] |
| 397 | Cc1cn2c(=O)c(-c3cnn(CC(F)(F)C(F)(F)F)c3)c(C(F)(F)F)nc2n1-c1cccc(Cl)n1 [Example 101, 1-(6-chloropyridin-2-yl)-2-methyl-6-[1-(2,2,3,3,3-pentafluoropropyl)-1H-pyrazol-4-yl]-7-(trifluoromethyl)-1H,5H-imidazo[1,2-a]pyrimidin-5-one] |
| 193 | Cc1cn2c(=O)c(-c3cnn(CC(F)(F)C(F)(F)F)c3)c(C(F)(F)F)nc2n1CCN(C)C [Example 84, 1-[2-(dimethylamino)ethyl]-2-methyl-6-[1-(2,2,3,3,3-pentafluoropropyl)-1H-pyrazol-4-yl]-7-(trifluoromethyl)-1H,5H-imidazo[1,2-a]pyrimidin-5-one] |
| 132 | Cc1cn2c(=S)c(-c3cnn(CC(F)(F)C(F)(F)F)c3)c(C(F)(F)F)nc2n1C [Example 92, 1,2-dimethyl-6-[1-(2,2,3,3,3-pentafluoropropyl)-1H-pyrazol-4-yl]-7-(trifluoromethyl)-1H,5H-imidazo[1,2-a]pyrimidine-5-thione] |
| 105 | Cc1cn2c(=O)c(-c3cnn(CCC(F)(F)F)c3)c(C(F)(F)F)nc2n1CC1CC1(F)F (stereo not drawn) [Example 81, 1-[(2,2-difluorocyclopropyl)methyl]-2-methyl-7-(trifluoromethyl)-6-[1-(3,3,3-trifluoropropyl)-1H-pyrazol-4-yl]-1H,5H-imidazo[1,2-a]pyrimidin-5-one] |
| 54.7 | COC(=O)n1c(C)cn2c(=O)c(-c3cnn(CC(F)(F)C(F)(F)F)c3)c(C(F)(F)F)nc12 [Example 80, methyl 2-methyl-5-oxo-6-[1-(2,2,3,3,3-pentafluoropropyl)-1H-pyrazol-4-yl]-7-(trifluoromethyl)-1H,5H-imidazo[1,2-a]pyrimidine-1-carboxylate] |
| 53.3 | Cc1cn2c(=O)c(-c3cnn(CC(F)(F)C(F)(F)F)c3)c(C(F)(F)F)nc2n1CCC1(O)CC1 [Example 89, 1-[2-(1-hydroxycyclopropyl)ethyl]-2-methyl-6-[1-(2,2,3,3,3-pentafluoropropyl)-1H-pyrazol-4-yl]-7-(trifluoromethyl)-1H,5H-imidazo[1,2-a]pyrimidin-5-one] |
| 29.3 | Cc1cn2c(=O)c(-c3cnn(CC(F)(F)C(F)(F)F)c3)c(C(F)(F)F)nc2n1-c1cnn(C)c1 [Example 97, 2-methyl-1-(1-methyl-1H-pyrazol-4-yl)-6-[1-(2,2,3,3,3-pentafluoropropyl)-1H-pyrazol-4-yl]-7-(trifluoromethyl)-1H,5H-imidazo[1,2-a]pyrimidin-5-one] |
| 11.5 | Cc1cn2c(=O)c(-c3cnn(CCC(F)(F)F)c3)c(C(F)(F)F)nc2n1CCO [Example 83, 1-(2-hydroxyethyl)-2-methyl-7-(trifluoromethyl)-6-[1-(3,3,3-trifluoropropyl)-1H-pyrazol-4-yl]-1H,5H-imidazo[1,2-a]pyrimidin-5-one] |
| 10.9 | Cc1cn2c(=O)c(-c3cnn(CC(F)(F)C(F)(F)F)c3)c(C(F)(F)F)nc2n1CC#N [Example 86, 2-{2-methyl-5-oxo-6-[1-(2,2,3,3,3-pentafluoropropyl)-1H-pyrazol-4-yl]-7-(trifluoromethyl)-1H,5H-imidazo[1,2-a]pyrimidin-1-yl}acetonitrile] |
| 7.1 | C#CCn1c(C)cn2c(=O)c(-c3cnn(CC(F)(F)C(F)(F)F)c3)c(C(F)(F)F)nc12 [Example 85, 2-methyl-6-[1-(2,2,3,3,3-pentafluoropropyl)-1H-pyrazol-4-yl]-1-(prop-2-yn-1-yl)-7-(trifluoromethyl)-1H,5H-imidazo[1,2-a]pyrimidin-5-one] |
